One molecule from patent US20030190642A1, “Thymus expressed human cytochrome p450(p450tec)” (priority 2003, published 2003) can be followed below.

The experiment has as its target T1, P450TEC (Homo sapiens, UniProt Q7Z449).
T1 construct: One of 5 clones contained a putative full length cytochrome, which we have named P450TEC; made in house; host or cells: Sf9 insect cells, recombinant baculovirus (pVL1392 transfer vector); microsomal fraction
T1 sequence (Q7Z449 1-544): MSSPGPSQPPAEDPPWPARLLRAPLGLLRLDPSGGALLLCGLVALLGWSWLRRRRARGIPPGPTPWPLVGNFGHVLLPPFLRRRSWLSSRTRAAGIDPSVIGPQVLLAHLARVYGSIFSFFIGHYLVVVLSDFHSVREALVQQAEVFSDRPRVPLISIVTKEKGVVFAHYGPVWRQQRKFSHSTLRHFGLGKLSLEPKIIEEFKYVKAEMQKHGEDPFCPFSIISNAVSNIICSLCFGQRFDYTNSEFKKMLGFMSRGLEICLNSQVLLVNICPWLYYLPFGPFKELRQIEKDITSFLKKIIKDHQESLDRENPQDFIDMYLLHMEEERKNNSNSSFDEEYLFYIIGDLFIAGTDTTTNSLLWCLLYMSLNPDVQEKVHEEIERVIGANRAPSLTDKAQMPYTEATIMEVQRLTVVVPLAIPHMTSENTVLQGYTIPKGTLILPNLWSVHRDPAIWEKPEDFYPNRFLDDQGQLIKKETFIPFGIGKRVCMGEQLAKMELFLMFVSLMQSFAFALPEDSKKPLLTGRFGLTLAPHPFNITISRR
Nature of the experiment: Arachidonic acid metabolism by baculovirus-Sf9-expressed P450TEC microsomes (HPLC, LC-MS). The class given is biochemical. The protocol: Cultured Sf9 insect cells expressing recombinant P450TEC were harvested 3 days after infection, washed twice with phosphate buffered saline (PBS) and resuspended in lysis buffer (100 mM Tris-HCl, pH 7.4, 1 mM EDTA, 0.5 M sucrose) containing protease inhibitor cocktail (Roche Diagnostics GmbH, Mannheim, Germany, 1 tablet per 10 ml lyses buffer). Cells were disrupted by brief sonication (5-8 bursts of 5 seconds duration) on ice using 550 Sonic Dismembrator (Fisher Scientific, Canada). The resulting cell lysates were successively centrifuged, at 800g, and 10,000g for 10 min each time at 4° C. Microsomal fractions from the 10,000g supernatants were pelleted by centrifugation at ˜1 00,000g for 60 min at 4° C. The pellet was then resuspended in microsomes storage buffer (10 mM Tris-HCl, pH 7.4, 5 mM MgCl2, 1mM EDTA, 150 mM KCI and 10% glycerol) and stored at −70° C. […]
For MS and MS/MS analyses of arachidonic acid metabolites, 5 μM of unlabeled arachidonic acid was incubated for 60 min. […] Similarly, ethyl acetate extracts from microsomal incubations without arachidonic acid was also processed and analyzed by LC-MS. […]

On to `CCCCCC=CCC=CCC=CCC=CCCCC(=O)O` [arachidonic acid, 5,8, 11, 14-eicosatetraenoic acid], for which the “linearity of arachidonic acid metabolite formation with time” value (5 μM [1-14C] arachidonic acid, NADPH-CYP oxidoreductase+b5 and NADPH, 15, 30 and 60 min) is “directly porportional to time of incubation”. For the same molecule, the “metabolite formed from arachidonic acid by P450TEC” value (P450TEC microsomes, NADPH, 1 or 20 μM [1-14C] arachidonic acid, 60 min, 37° C.) was “monohydroxylated arachidonic acid”.
